The results in this text go back to patent US9221876B2, “Methods for treating kidney disease with fragments of ApoB-100” (Cedars-Sinai Medical Center, priority 2011, dated 2015).

“Also recorded” adds a separate entry of the source. No end group written: not given here.

Common to all, as to format: in vivo, apoE (−/−) male mice
Test [1] has as its system Angiotensin II type 1 receptor (AT1R). Briefly: AT1R expression in aorta, Western blot with densitometric analysis, after p210 immunization and AngII infusion. Particulars: 100 μg p210/cBSA/Alum s.c. at 7, 10, 12 weeks of age; AngII 1000 ng/Kg/min by osmotic pump for 4 weeks; vs cBSA/Alum and PBS; N=6 each. An excerpt:
N=6 in each group. p210: immunized with p210/cBSA/Alum+AngII; cBSA: immunized with cBSA/Alum+AngII; PBS: immunized with PBS+AngII.
(§1) The inventors assessed the effect of p210 immunization on AngII-induced renal inflammatory responses in apoE (−/−) male mice. For the experiments described herein, native p210 peptide (KTTKQ SFDLS VKAQY KKNKH) was conjugated to cationic bovine serum albumin (cBSA) as carrier. Alum was used as an adjuvant. At 7, 10, and 12 weeks of age, male apoE (−/−) mice were subcutaneously injected with 100 μg of p210/cBSA/Alum. As immunization controls, 100 μg of cBSA/Alum, or PBS were injected. At 10 weeks of age after first immunization booster, 1000 ng/Kg/min of AngII was delivered by subcutaneously implanted osmotic pump for 4 weeks (FIG. 1A).
On the technique in general: In western blotting, separated proteins are transferred to a membrane and probed.

Test [2] in a line: Serum creatinine level (indicator of renal function), creatinine assay kit, AngII-induced renal damage. The procedure: as §1
Serum creatinine (Cr.) (an indicator of renal function) level at 14 weeks of age was assessed by commercially available creatinine assay kit following the manufacture's instruction. […] N: p210=12, cBSA=11, PBS=9.

The test system of the next test is IL-6. In words: IL-6 mRNA expression in kidney, quantitative PCR. As to conditions: p210/cBSA/Alum+AngII vs cBSA/Alum+AngII and PBS+AngII; N=8 each; p<0.05. The procedure: as §1
(§2) At euthanasia, kidney was harvested for quantitative PCR analysis or histological analysis. Data are presented as mean±SEM. Data were analyzed by ANOVA following post-hoc test for multiple group comparison.

The subject of the next test is MCP-1. In words: MCP-1 mRNA expression in kidney, quantitative PCR. As to conditions: p210/cBSA/Alum+AngII vs cBSA/Alum+AngII and PBS+AngII; N=8 each; p<0.05. Here is the method:
as §1, §2

The next test concerns TNF-α. In words: TNF-α mRNA expression in kidney, quantitative PCR. Particulars: p210/cBSA/Alum+AngII vs cBSA/Alum+AngII and PBS+AngII; N=10 each; p<0.05. The procedure:
as §1, §2

The test system of test [3] is glomerular ROS production. Briefly: Glomerular ROS (superoxide) production, in situ dihydroethidium (DHE) labeling of frozen kidney sections. As to conditions: p210/cBSA/Alum+AngII vs cBSA/Alum+AngII and PBS+AngII; N=4 each; p<0.05.
Source text: (A) Representative figure of in situ DHE labeling. (B) Densitometric analysis of DHE fluorescence. *p<0.05 vs. p210. N=4 each. p210: immunized with p210/cBSA/Alum+AngII; cBSA: immunized with cBSA/Alum+AngII; PBS: immunized with PBS+AngII.
as §1
Superoxide production in kidney was measured by in situ dihydroethidium (DHE) methods with freshly cut frozen sections.

Test [4] has as its system NOX1, a component of NADPH oxidase. Briefly: NOX1 expression in kidney. Particulars: p210/cBSA/Alum+AngII vs cBSA/Alum+AngII and PBS+AngII; N=8 each; p<0.05.
Source text: (§3) (Left): PAI-1. N=5 each, (Right): TGF-β. N=9 each. *p<0.05 vs. p210. p210: immunized with p210/cBSA/Alum+AngII; cBSA: immunized with cBSA/Alum+AngII; PBS: immunized with PBS+AngII.
as §1, §2
(§4) These anti-hypertensive and renal protective effects are associated with significant reduction of inflammatory cytokines and chemokine gene expression, ROS production mediated by NADPH oxidase, and profibrotic gene expression in kidney. […]

The subject of the next test is PAI-1. Briefly: PAI-1 mRNA expression in kidney. Particulars: p210/cBSA/Alum+AngII vs cBSA/Alum+AngII and PBS+AngII; N=5 each; p<0.05.
Source text: as §3, §1, §2, §4

In another test the test system is TGF-β. In words: TGF-β mRNA expression in kidney. Particulars: p210/cBSA/Alum+AngII vs cBSA/Alum+AngII and PBS+AngII; N=9 each; p<0.05.
Source text: as §3, §1, §2, §4

On to “KTTKQ SFDLS VKAQY KKNKH (KTTKQSFDLSVKAQYKKNKH; also: conjugated to cationic BSA carrier) [Peptide P210, amino acids 3136-3155 of human ApoB-100; tested conjugated to cationic bovine serum albumin (cBSA) as carrier, Alum as adjuvant]”, for which the “expression of Angiotensin II type 1 receptor (AT1R) in aorta” value in test [1] was “significantly decreased”. Moreover, in test [2] (at 14 weeks of age, 100 μg p210/cBSA/Alum s.c. at 7, 10, 12 weeks, AngII infusion 4 weeks, mean±SEM, N p210=12), the “Serum Cr.” value came out at 0.6 ± 0.1 mg/dL. The “Serum creatinine level vs cBSA and PBS groups” value in test [2] (at 14 weeks of age, p<0.05) was “significantly lower”. Further, the AngII-induced renal damage result in test [2] (p210 immunization, AngII infusion 4 weeks) is given as “protected against AngII-induced renal damage; also recorded: significantly attenuated”. Also, the “IL-6 mRNA expression in kidney” value in the test on IL-6 is given as “down-regulated; also recorded: significantly reduced”. Moreover, the “MCP-1 mRNA expression in kidney” value in the test on MCP-1 is “down-regulated; also recorded: significantly reduced”. For the same substance, in the test with TNF-α, the “TNF-α mRNA expression in kidney” value is reported as “down-regulated; also recorded: significantly reduced”. The “glomerular ROS production (DHE fluorescence)” value in [3] is listed as “significantly reduced”. Moreover, in [4], the “NOX1 expression in kidney” value is reported as “significantly reduced”. In the test on PAI-1, the “PAI-1 mRNA expression in kidney” value is given as “significantly downregulated; also recorded: significantly reduced”. For the same substance, the “TGF-β mRNA expression in kidney” value in the test with TGF-β is listed as “significantly downregulated; also recorded: significantly reduced”.
